Laboratory results: patent US9382254B2, “Compounds and pharmaceutical compositions thereof for the treatment of cystic fibrosis” (Galapagos NV, priority 2013, dated 2016)

target: T1, CFTR ΔF508 mutant (Homo sapiens, UniProt P13569, DEL508-508); assay: YFP-halide influx assay for the CFTR-ΔF508 mutation, gluconate buffer; type: cell-based; conditions: CFBE41o- cells, forskolin 10.67 μM
T1 construct: expressed in transfected cells; host or cells: CFBE41o- (adenoviral transduction)
Method in brief: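 Channel opening is read as the fall in YFP fluorescence over 7 s following iodide injection, expressed as 1-F/F0 and plotted versus compound concentration to derive EC50. Cells used were CFBE41o- expressing adenoviral ΔF508 CFTR and halide-sensitive YFP, rescued by 24 h at 27 °C or 24 h modulator treatment at 37 °C.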

T1 sequence (P13569 with tags, fused parts or gaps DEL508-508): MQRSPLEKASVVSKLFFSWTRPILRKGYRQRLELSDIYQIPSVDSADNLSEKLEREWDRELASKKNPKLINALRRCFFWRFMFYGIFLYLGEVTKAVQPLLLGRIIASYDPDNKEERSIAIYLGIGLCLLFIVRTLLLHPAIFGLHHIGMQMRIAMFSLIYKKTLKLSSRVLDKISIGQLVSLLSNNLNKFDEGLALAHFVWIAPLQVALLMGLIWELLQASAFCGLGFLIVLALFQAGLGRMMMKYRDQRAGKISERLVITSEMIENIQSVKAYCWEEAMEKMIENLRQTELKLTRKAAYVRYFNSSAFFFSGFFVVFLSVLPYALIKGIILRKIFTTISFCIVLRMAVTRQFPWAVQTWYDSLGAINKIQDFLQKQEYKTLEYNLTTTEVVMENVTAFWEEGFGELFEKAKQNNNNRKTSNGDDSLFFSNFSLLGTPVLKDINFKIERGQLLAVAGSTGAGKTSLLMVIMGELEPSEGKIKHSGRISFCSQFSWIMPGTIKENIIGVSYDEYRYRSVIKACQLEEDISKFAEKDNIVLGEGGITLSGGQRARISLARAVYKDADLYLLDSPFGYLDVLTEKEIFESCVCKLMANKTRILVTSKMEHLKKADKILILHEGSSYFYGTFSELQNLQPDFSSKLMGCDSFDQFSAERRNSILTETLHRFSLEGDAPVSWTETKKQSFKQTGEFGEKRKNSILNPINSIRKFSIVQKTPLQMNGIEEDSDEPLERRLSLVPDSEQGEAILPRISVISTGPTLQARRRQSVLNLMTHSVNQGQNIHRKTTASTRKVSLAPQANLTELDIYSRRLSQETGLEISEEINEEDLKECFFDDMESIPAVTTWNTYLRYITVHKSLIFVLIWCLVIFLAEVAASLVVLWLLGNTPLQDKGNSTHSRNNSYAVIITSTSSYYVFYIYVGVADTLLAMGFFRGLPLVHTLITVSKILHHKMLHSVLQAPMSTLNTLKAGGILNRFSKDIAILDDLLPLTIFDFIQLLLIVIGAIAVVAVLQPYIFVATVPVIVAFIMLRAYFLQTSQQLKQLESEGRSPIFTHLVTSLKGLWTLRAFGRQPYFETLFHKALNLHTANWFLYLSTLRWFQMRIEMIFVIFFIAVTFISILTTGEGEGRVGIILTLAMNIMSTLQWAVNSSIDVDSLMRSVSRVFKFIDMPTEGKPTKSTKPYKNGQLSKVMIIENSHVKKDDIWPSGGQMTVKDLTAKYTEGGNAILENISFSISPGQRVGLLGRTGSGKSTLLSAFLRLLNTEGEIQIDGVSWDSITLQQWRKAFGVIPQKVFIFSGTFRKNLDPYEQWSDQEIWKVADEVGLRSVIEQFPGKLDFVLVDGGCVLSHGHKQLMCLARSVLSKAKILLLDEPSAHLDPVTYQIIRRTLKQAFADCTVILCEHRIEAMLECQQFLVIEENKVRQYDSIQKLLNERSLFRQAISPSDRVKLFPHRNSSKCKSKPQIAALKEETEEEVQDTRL

SMILES	EC50
NC(=O)c1cc(S(=O)(=O)N2CCOCC2)sc1NC(=O)c1ccc(Cl)cc1F [Compound 133, 2-(4-chloro-2-fluorobenzamido)-5-(morpholinosulfonyl) thiophene-3-carboxamide]	271 nM
NC(=O)c1cc(S(=O)(=O)N2CCOCC2)sc1NC(=O)c1cccc(C2CC2)c1 [Compound 134, 2-(3-cyclopropylbenzamido)-5-(morpholinosulfonyl) thiophene-3-carboxamide]	946 nM
COc1cc(C)ccc1C(=O)Nc1sc(S(=O)(=O)N2CCOCC2)cc1C(N)=O [Compound 135, 2-(2-methoxy-4-methylbenzamido)-5-(morpholinosulfonyl) thiophene-3-carboxamide]	> 1000 nM
Cc1ccccc1C(=O)Nc1sc(S(=O)(=O)N2CCOCC2)cc1C(N)=O [Compound 136, 2-(2-methylbenzamido)-5-(morpholinosulfonyl) thiophene-3-carboxamide]	291 nM
NC(=O)c1cc(S(=O)(=O)N2CCOCC2)sc1NC(=O)c1cccc(O)c1 [Compound 137, 2-(3-hydroxybenzamido)-5-(morpholinosulfonyl) thiphene-3-carboxamide]	263 nM
NC(=O)c1cc(S(=O)(=O)N2CCOCC2)sc1NC(=O)c1ccc(F)cc1F [Compound 138, 2-(2,4-difluorobenzamido)-5-(morpholinosulfonyl) thiophene-3-carboxamide]	313 nM
NC(=O)c1cc(S(=O)(=O)N2C[C@@H]3C[C@H]2CO3)sc1NC(=O)c1ccccc1F [Compound 144, 5-((1S,4S)-2-oxa-5-azabicyclo[2.2.1]heptan-5-ylsulfonyl)-2-(2-fluorobenzamido) thiophene-3-carboxamide]	365 nM
NC(=O)c1cc(S(=O)(=O)N2CCCOCC2)sc1NC(=O)c1cc[nH]n1 [Compound 146, N-(5-(1,4-oxazepan-4-ylsulfonyl)-3-carbamoylthiophen-2-yl)-1H-pyrazole-3-carboxamide]	241 nM
COc1ccc(CN(C)S(=O)(=O)c2cc(C(N)=O)c(NC(=O)c3ccccc3F)s2)cc1 [Compound 147, 2-(2-fluorobenzamido)-5-(N-(4-methoxybenzyl)-N-methylsulfamoyl)thiophene-3-carboxamide]	242 nM
CC(C)(C)OC(=O)N1CCC2(CC1)CCN(S(=O)(=O)c1cc(C(N)=O)c(NC(=O)c3ccccc3F)s1)C2 [Compound 148, tert-butyl 2-(4-carbamoyl-5-(2-fluorobenzamido)thiophen-2-ylsulfonyl)-2,8-diazaspiro[4.5]decane-8-carboxylate]	344 nM
CC(C)(O)C1CCN(S(=O)(=O)c2cc(C(N)=O)c(NC(=O)c3ccccc3F)s2)CC1 [Compound 149, 2-(2-fluorobenzamido)-5-(4-(2-hydroxypropan-2-yl)piperidin-1-ylsulfonyl) thiophene-3-carboxamide]	517 nM
NC(=O)c1cc(S(=O)(=O)N2CCc3ccccc3C2)sc1NC(=O)c1ccccc1F [Compound 150]	638 nM
NC(=O)c1cc(S(=O)(=O)N2Cc3ccccc3C2)sc1NC(=O)c1ccccc1F [Compound 151, 2-(2-fluorobenzamido)-5-(isoindolin-2-ylsulfonyl)thiophene-3-carboxamide]	357 nM
CN1CCC(N(C)S(=O)(=O)c2cc(C(N)=O)c(NC(=O)c3ccccc3F)s2)CC1 [Compound 155, 2-(2-fluorobenzamido)-5-(N-methyl-N-(1-methylpiperidin-4-yl)sulfamoyl) thiophene-3-carboxamide]	> 1000 nM
NC(=O)c1cc(S(=O)(=O)N(Cc2cccc(F)c2)C2CC2)sc1NC(=O)c1ccccc1F [Compound 156, 5-(N-cyclopropyl-N-(3-fluorobenzyl)sulfamoyl)-2-(2-fluorobenzamido) thiophene-3-carboxamide]	361 nM
NC(=O)c1cc(S(=O)(=O)N2CCC(c3ccccc3)CC2)sc1NC(=O)c1ccccc1F [Compound 159, 2-(2-fluorobenzamido)-5-(4-phenylpiperidin-1-ylsulfonyl)thiophene-3-carboxamide]	407 nM
CN(C1CCOCC1)S(=O)(=O)c1cc(C(N)=O)c(NC(=O)c2ccccc2F)s1 [Compound 161, 2-(2-fluorobenzamido)-5-(N-methyl-N-(tetrahydro-2H-pyran-4-yl)sulfamoyl) thiophene-3-carboxamide]	221 nM
N#CC1CCN(S(=O)(=O)c2cc(C(N)=O)c(NC(=O)c3ccccc3F)s2)CC1 [Compound 162, 5-(4-cyanopiperidin-1-ylsulfonyl)-2-(2-fluorobenzamido) thiophene-3-carboxamide]	331 nM
CC(C)S(=O)(=O)c1cc(C(N)=O)c(NC(=O)c2ccccc2F)s1 [Compound 163, 2-(2-fluorobenzamido)-5-(isopropylsulfonyl) thiophene-3-carboxamide]	272 nM
CC(C)(C)S(=O)(=O)c1cc(C(N)=O)c(NC(=O)c2ccccc2F)s1 [Compound 164, 5-(tert-butylsulfonyl)-2-(2-fluorobenzamido) thiophene-3-carboxamide]	> 1000 nM

SMILES	EC50
NC(=O)c1cc(S(=O)(=O)C2CCOCC2)sc1NC(=O)c1ccccc1F [Compound 165, 2-(2-fluorobenzamido)-5-(tetrahydro-2H-pyran-4-ylsulfonyl)thiophene-3-carboxamide]	> 1000 nM
Cc1cc(C(=O)Nc2sc(S(=O)(=O)N3CCOCC3)cc2C(N)=O)n[nH]1 [Compound 166, N-(3-carbamoyl-5-(morpholinosulfonyl)thiophen-2-yl)-5-methyl-1H-pyrazole-3-carboxamide]	815 nM
Cn1nc(C(C)(C)C)cc1C(=O)Nc1sc(S(=O)(=O)N2CCOCC2)cc1C(N)=O [Compound 167, 3-tert-butyl-N-(3-carbamoyl-5-(morpholinosulfonyl)thiophen-2-yl)-1-methyl-1H-pyrazole-5-carboxamide]	3050 nM
COc1cc(F)ccc1C(=O)Nc1sc(S(=O)(=O)N2CCOCC2)cc1C(N)=O [Compound 168, 2-(4-fluoro-2-methoxybenzamido)-5-(morpholinosulfonyl) thiophene-3-carboxamide]	1660 nM
Cc1cc(F)ccc1C(=O)Nc1sc(S(=O)(=O)N2CCOCC2)cc1C(N)=O [Compound 169, 2-(4-fluoro-2-methylbenzamido)-5-(morpholinosulfonyl) thiophene-3-carboxamide]	210 nM
CN(C)C1CCN(S(=O)(=O)c2cc(C(N)=O)c(NC(=O)c3ccccc3F)s2)CC1 [Compound 174, 5-(4-(dimethylamino)piperidin-1-ylsulfonyl)-2-(2-fluorobenzamido) thiophene-3-carboxamide]	2370 nM
N#CC1CN(S(=O)(=O)c2cc(C(N)=O)c(NC(=O)c3ccccc3F)s2)C1 [Compound 176, 5-(3-cyanoazetidin-1-ylsulfonyl)-2-(2-fluorobenzamido)thiophene-3-carboxamide]	1460 nM
NC(=O)c1cc(S(=O)(=O)N2CC(F)C2)sc1NC(=O)c1ccccc1F [Compound 177, 5-(3-fluoroazetidin-1-ylsulfonyl)-2-(2-fluorobenzamido)thiophene-3-carboxamide]	178 nM
NC(=O)c1cc(S(=O)(=O)c2ccccn2)sc1NC(=O)c1ccccc1F [Compound 178, 2-(2-fluorobenzamido)-5-(pyridin-2-ylsulfonyl) thiophene-3-carboxamide]	524 nM
Cc1ccccc1S(=O)(=O)c1cc(C(N)=O)c(NC(=O)c2ccccc2F)s1 [Compound 180, 2-(2-fluorobenzamido)-5-(o-tolylsulfonyl)thiophene-3-carboxamide]	123 nM
COc1ccccc1S(=O)(=O)c1cc(C(N)=O)c(NC(=O)c2ccccc2F)s1 [Compound 181, 2-(2-fluorobenzamido)-5-(2-methoxyphenylsulfonyl) thiophene-3-carboxamide]	144 nM
CN(CC(C)(C)C)S(=O)(=O)c1cc(C(N)=O)c(NC(=O)c2ccccc2F)s1 [Compound 184, 2-(2-fluorobenzamido)-5-(N-methyl-N-neopentylsulfamoyl) thiophene-3-carboxamide]	679 nM
CN(CCC(F)(F)F)S(=O)(=O)c1cc(C(N)=O)c(NC(=O)c2ccccc2F)s1 [Compound 185, 2-(2-fluorobenzamido)-5-(N-methyl-N-(3,3,3-trifluoropropyl)sulfamoyl) thiophene-3-carboxamide]	335 nM
COCCCN(C)S(=O)(=O)c1cc(C(N)=O)c(NC(=O)c2ccccc2F)s1 [Compound 186, 2-(2-fluorobenzamido)-5-(N-(3-methoxypropyl)-N-methylsulfamoyl)thiophene-3-carboxamide]	270 nM
CN(C)C1CN(S(=O)(=O)c2cc(C(N)=O)c(NC(=O)c3ccccc3F)s2)C1 [Compound 187, 5-(3-(dimethylamino)azetidin-1-ylsulfonyl)-2-(2-fluorobenzamido)thiophene-3-carboxamide]	1600 nM
NC(=O)c1cc(S(=O)(=O)N2CC3(COC3)C2)sc1NC(=O)c1ccccc1F [Compound 188, 5-(2-oxa-6-azaspiro[3.3]heptan-6-ylsulfonyl)-2-(2-fluorobenzamido) thiophene-3-carboxamide]	2100 nM
CN(C(c1ccccc1)C(F)(F)F)S(=O)(=O)c1cc(C(N)=O)c(NC(=O)c2cc[nH]n2)s1 (stereo not drawn) [Compound 195, N-(3-carbamoyl-5-(N-methyl-N-(2,2,2-trifluoro-phenylethyl)sulfamoyl)thiophen-2-yl)-1H-pyrazole-3-carboxamide]	258 nM
NC(=O)c1cc(S(=O)(=O)c2ccc(F)cc2CO)sc1NC(=O)c1ccccc1F [Compound 196, 5-(4-fluoro-2-(hydroxymethyl)phenylsulfonyl)-2-(2-fluorobenzamido) thiophene-3-carboxamide]	2100 nM
NC(=O)c1cc(S(=O)(=O)N2CCOCC2)sc1NC(=O)C1(O)CCC1 [Compound 199, 2-(1-hydroxycyclobutanecarboxamido)-5-(morpholinosulfonyl) thiophene-3-carboxamide]	1970 nM
